Consider 4 compounds from US20200079785A1, “MITOMYCIN C PRODRUG LIPOSOME FORMULATIONS AND USES THEREOF” (MALLINCKRODT LLC, priority 2016, published 2020).

Read-outs that look alike come from different tables or passages of the source.

In data set [1] the test system is HT29 colorectal adenocarcinoma xenografts. The procedure: The anti-tumor activity of liposomal MMC prodrugs were evaluated in female Hsd:Athymic Nude-Foxn1^nu/nu mice (approximately 25 g) implanted subcutaneous with HT29 colorectal adenocarcinoma cells or (1×10^6). Once tumors reached a median size of 200 mm^3, animals were randomized into five (5) groups, normalized by tumor volume. Animals without tumors were not included in this study. […]
According to NCI euthanasia guidelines, mice were removed from the study if they loss 20% of their initial bodyweight or became moribund or if their tumor volume exceeded 2500 mm^3 or if the tumor ulcerated. Tumor volume was measured with the TumorImager system at least twice per week and calculated with the TumorManager software, and mice were weighed twice per week.
Tumor volume was expressed as mean and median and plotted as a function of time. Animals removed from the study due to excess tumor size beyond 2500 mm^3 had values carried forward as 2500 mm^3 in the median plot only. Groups with less than 50% animals remaining were not carried forward for further tumor analysis. The following parameters were determined from tumor size and survival analysis: tumor growth inhibition (TGI), tumor growth delay (TGD), and median survival. The ratio of treated versus control tumor volume (% T/C) was calculated as: […]
Statistical significance of observed differences between growth curves were evaluated by One-Way ANOVA followed by posthoc test if significant.
In another study, mice bearing HT29 colorectal adenocarcinoma xenografts were given a single intravenous dose of liposomal MMC Prodrugs (MP-3854 or MP-3861), free MMC, or saline and the results are summarized FIGS. 7 and 8 and Table 10 below.
In another study, mice bearing HT29 colorectal adenocarcinoma xenografts were given a single intravenous dose of liposomal MMC Prodrug (W-3854) or saline and the results are summarized FIG. 10 and Table 12 below.
In a further study, mice bearing HT29 colorectal adenocarcinoma xenografts were given a single intravenous dose of liposomal MMC Prodrug (W-3854) or saline and the results are summarized FIG. 11 and Table 13 below.

Data set [2] is described as follows: Plasma pharmacokinetics of liposomal MMC prodrugs in mice. The data set is classed as in vivo. From the text:
The plasma pharmacokinetics of liposomal MMC prodrugs and free MMC were studied in mice. The liposomal MMC prodrugs are described in Table 6 below.
Animals were randomized into five (5) groups, each with 18 mice.
Three animals were sacrificed at the appropriate time points post injection. Blood samples were taken for pharmacokinetic analysis at each time point (Table 8). Approximately 0.4 mls of blood was collected, via cardiac puncture under isoflurane anesthesia, into a lithium heparin tube and placed on ice. The samples were spun to obtain the plasma, which were stored in microfuge tubes at −80° C.

The test system of data set [3] is A549 NSCLC xenografts. As to the kind of experiment: In vivo anti-tumor activity, A549 xenografts. The note with it: single IV, 5 mg/kg MMC-eq. Further details: species or system mice.
Data set [4] concerns HT29 colorectal adenocarcinoma cells. The data set can be described thus: In vitro cell kill assay. The data set is classed as cell-based. How it is done: MCC, MMC prodrugs, and liposomal MMC prodrugs were evaluated in an in vitro cell kill assay. MMC, MMC prodrug, and liposomal MMC prodrug samples were diluted in DPBS as a starting concentration, then serially diluted 1:3 in DPBS (i.e., 70 μL:140 μL). HT29 colorectal adenocarcinoma cells were plated at 100 μL/well in 10% FBS/McCoy's 5a+Pen/Strep media at 5×10^4 cells/mL, based on approximated 24-h doubling time. The plates were incubated at 37° C. overnight to allow the cells to adhere. Next, 10 μL/well treatment dose of MMC, MMC prodrug, or liposomal MMC prodrug was added to the wells, and the plates were incubated at 37° C. […] After a 2-h incubation, the media was removed from the plate and 100 μL/well drug-free media was added before returning to the incubator. After a 24-h incubation, the media was removed from the plate and 100 μL/well drug-free media was added before returning to the incubator. After a 72-h incubation, the media was removed from all of the plates and 100 μL/well drug-free media with 10% Alamar was added to each and returned to the incubator.
Cell viability was measured using WST-1 cell proliferation colorimetric assay or AlamarBlue. 50 mL of 10% WST/McCoy's 5a media was prepared from 5 mL of WST+45 mL of media; 50 mL of 10% Alamar Blue/McCoy's 5a media was prepared from 5 mL of Alamar Blue+45 mL of media. 10% WST/McCoy's 5a media or 10% Alamar Blue/McCoy's 5a was added, and the plates were returned to the incubator to develop, followed by subsequent reading of the fluorescence or absorbance.

The conditions of data set [5]: in vivo; cited from earlier work.
A short description of data set [6]: Conversion of MMC prodrug to MMC in cysteine solution (HPLC). The data set is classed as physicochemical. The note with it: cysteine solution pH 6.95, 37° C., after 2 h.
Where [7] appears, read: Table 10, single IV, 3 mg/kg MMC-eq.
Where [8] appears, read: Table 10, single IV, 5 mg/kg MMC-eq.
[9] abbreviates: 2 h drug incubation, read-out: IC50.
The mark [10] stands for this setting: 24 h drug incubation, read-out: IC50.
[11] abbreviates: 72 h drug incubation, read-out: IC50.

In general, IC50 refers to the concentration needed to halve the response being measured. `CO[C@@]12[C@H](COC(N)=O)C3=C(C(=O)C(C)=C(N)C3=O)N1C[C@@H]1N[C@@H]12` [MMC, Mitomycin C]: the “% T/C” value worked out at 72% in data set [1] (Table 9, 2 mpk q7d x3); 13% in data set [1] (Table 9, 3 mpk q7d x3); 5% in data set [1] (Table 9, 5 mpk q7d x3); 77% in data set [1] (Table 9, 5 mpk single); 83% in data set [1] (setting [7]); 48% in data set [1] (setting [8]). Also, the “% T/C” value in data set [3] is 90%. Besides, the “Median Survival” value came to 48 days in data set [1] (setting [7]), 54 days in data set [1] (setting [8]) and 76 days in data set [3]. For the same compound, the “TGD (1000 mm3 Days)” value in data set [1] (setting [7]) was 5.2 days; in data set [1] (setting [8]), 9.5 days; in data set [3], 32 days. Moreover, the Half-Life result in data set [2] (Mitomycin C in plasma after high dose of MP-3854 (25 mg/kg MMC-eq)) and in data set [2] (Mitomycin C in plasma after low dose of MP-3854 (5 mg/kg MMC-eq)) was “LLD” in each case. Also, the IC50 came out at 1830 nM in data set [4] (Homo sapiens, HT-29, 2 h); 175 nM in data set [4] (Homo sapiens, HT-29, 24 h); 109 nM in data set [4] (Homo sapiens, HT-29, 48 h); 199 nM in data set [4] (Homo sapiens, HT-29, 72 h). For the same compound, in data set [5], the half-life alpha is 8 min. Besides, the half-life terminal in data set [5] was 48 min.

On to `CO[C@@]12[C@H](COC(N)=O)C3=C(C(=O)C(C)=C(N)C3=O)N1C[C@H]1[C@@H]2N1C(=O)OCCSSCCN1CCCCC1` [MP-3827], for which the IC50 was found to be 5930 nM in data set [4] (setting [9]); 2640 nM in data set [4] (setting [10]); 1690 nM in data set [4] (48 h drug incubation, read-out: IC50); 1290 nM in data set [4] (setting [11]).

On to `CO[C@@]12[C@H](COC(N)=O)C3=C(C(=O)C(C)=C(N)C3=O)N1C[C@H]1[C@@H]2N1C(=O)OCc1ccc(SSCCN2CCCCC2)cc1` [MP-3832, 4-((2-(piperidin-1-yl)ethyl)disulfanyl)benzyl(1aS,8S,8aR,8bS)-6-amino-8-((carbamoyloxy)methyl)-8a-methoxy-5-methyl-4,7-dioxo-1a,4,7,8,8a,8b-hexahydroazirino[2′,3′:3,4]pyrrolo[1,2-α]indole-1(2H)-carboxylate], for which the IC50 in data set [4] (setting [9]) turned out to be 4700 nM; in data set [4] (setting [10]), 1440 nM; in data set [4] (setting [11]), 1710 nM.

In the case of `CO[C@@]12[C@H](COC(N)=O)C3=C(C(=O)C(C)=C(N)C3=O)N1C[C@H]1[C@@H]2N1C(=O)OCCSSCCN1CCN(C)CC1` [MP-3854, 2-((2-(4-methylpiperazin-1-yl)ethyl)disulfanyl)ethyl (1aS,8S,8aR,8bS)-6-amino-8-((carbamoyloxy)methyl)-8a-methoxy-5-methyl-4,7-dioxo-1a,4,7,8,8a,8b-hexahydroazirino[2′,3′:3,4]pyrrolo[1,2-a]indole-1(2H)-carboxylate], the conversion of prodrug result in data set [6] is on record as “complete conversion”. The MMC generated in data set [6] (HPLC 360 nm) is 92 Area %. The IC50 was determined as 41400 nM in data set [4] (Homo sapiens, HT-29, 2 h drug incubation, read-out: IC50); 4170 nM in data set [4] (Homo sapiens, HT-29, 24 h drug incubation, read-out: IC50); 3090 nM in data set [4] (Homo sapiens, HT-29, 72 h drug incubation, read-out: IC50).
